# Source: patent US5569670A, “Combination medications containing alpha-lipoic acid and related” (Asta Medica Aktiengesellschaft, priority 1992, dated 1996)
# Read-outs that look alike come from different tables or passages of the source.
# Columns and labels:
# in vivo [1] = conditions: mouse, in vivo
# in vivo [2] = conditions: rat, in vivo
# [3] = cited from earlier work
# [4] = cited from earlier work; remark: listed apart in the source
# mouse = assay: in vivo
# rat = assay: in vivo
# [5] = po, oral administration, LITCHFIELD and WILCOXON method, read-out: acute toxicity LD50
compound,measurement,setting,value
"O=C(O)CCCCC1CCSS1 (racemic) [alpha-lipoic acid (racemate), 1,2-dithia-cyclopentane-3-valeric acid]",LD50,"in vivo [1]; po, female, read-out: LD50",460 mg/kg
same,LD50,"in vivo [1]; po, male, read-out: LD50",502 mg/kg
same,LD50,"in vivo [2]; po, female",1210 mg/kg
same,LD50,"in vivo [2]; po, male",1190 mg/kg
O=C(O)CCCC[C@@H]1CCSS1 [R-alpha-lipoic acid],predominant effect of the enantiomer (anti-inflammatory),[3]; in vivo,predominantly anti-inflammatory effect
same,anti-inflammatory effect relative to the racemate,[3]; x times stronger than the racemate,10 times
same,LD50,in vivo [1]; [5],> 1000 mg/kg
O=C(O)CCCC[C@H]1CCSS1 [S-alpha-lipoic acid],LD50,in vivo [1]; [5],> 1000 mg/kg
same,predominant effect of the enantiomer (antinociceptive),[4]; in vivo,predominantly antinociceptive effect
same,antinociceptive (analgesic) effect relative to the racemate,[4]; up to x times stronger than the racemate,up to 6 times
"O=C1O[C@H]([C@@H](O)CO)C(O)=C1O [Vitamin C, ascorbic acid]",LD50,"in vivo [1]; iv, read-out: LD50",1060 mg/kg
same,LD50,"in vivo [1]; po, read-out: LD50",8020 mg/kg
same,LD50,in vivo [2]; iv,1000 mg/kg
same,LD50,in vivo [2]; po,> 5000 mg/kg
Vitamin B6,LD50,mouse; i.v.,1020 mg/kg
same,LD50,mouse; p.o.,8400 mg/kg
same,LD50,rat; i.v.,1450 mg/kg
same,LD50,rat; p.o.,5500 to 15900 mg/kg
